Laboratory results published in patent EP0346132A1, “Pharmaceutical products” (priority 1988, dated 1989).
Converted amounts (≈) assume the structure as drawn. “Also recorded” adds a separate entry of the source. Read-outs that look alike come from different tables or passages of the source. Each block holds one molecule with its values, some of them ahead of it.

Columns and labels:
[1] = Anti-HIV assay, toxicity to uninfected (normal) cells, MT-2C; type: cell-based; conditions: human, mt-2c cells
Excerpt: (§1) Compound 14a was screened for anti-HIV activity at the National Cancer Institute, Frederick Cancer Research Facility, Frederick, Maryland (FCRF). The screening mode operational procedures utilized at FCRF are set forth in detail in U.S. patent application Serial No. 07/146,252, filed January 20, 1988, the disclosure of which is incorporated by reference herein.
(§2) The data plotted on Figure 2 permit the calculation of an effective concentration (EC₅₀) with respect to infected cells of about 0.15 µg/ml, an inhibitory concentration (IC₅₀) with respect to normal cells of about 100 µg/ml, and a therapeutic index (TI₅₀) of about 667. An earlier assay carried out at the Southern Research Institute yielded a TI₅₀ of about 200 when MT-2 cells were cultured with H9/HTLV-IIIB.
(§3) Cells to be treated in 50 ml conical centrifuge tubes for 30 minutes with 1-2 µg/ml of polybrene at 37°C, and pelleted (8 min., 1200 RPM). Virus is added [in RMPI-1640, 10% fetal calf serum (FCS), with interleukin-2 (IL-2) (for ATH8 cells), and antibiotics] to provide an MOI of approximately 0.01. An MOI of 0.01 is obtained by adding 10³ infectious units of virus to 10⁵ cells. Medium alone is added to virus-free control cells. The treated or control cells are incubated for 1 hour at 37°C in 5% CO₂ in air. […] The plates are then incubated at 37°C in 5% CO₂ until ready for drug addition.

HIV [2] = experiment: Anti-HIV assay (protection of infected cells, XTT microculture tetrazolium assay); type: cell-based; conditions: for activity against HIV: in vitro; for activity against HIV / inhibit the infection and killing of human T lymphocytes (Th cells) by HIV: statement in words
Excerpt: as §1
(§4) Figure 2 depicts a plot of the percentage of test cells over uninfected cells (%) for both infected and uninfected cells as a function of the increasing concentration of compound 14a.
as §2
The following are the current screening mode operational procedures utilized at Southern Research Institute, Birmingham, AL. The procedure consists of 3 operations: 1) preparation of infected cells and distribution of the test plates; 2) preparation of drug dilution plates and distribution to the test plates; and 3) XTT assay procedure.
(§5) Cells to be treated in 50 ml conical centrifuge tubes for 30 minutes with 1-2 µg/ml of polybrene at 37°C, and pelleted (8 min., 1200 RPM). Virus is added [in RMPI-1640, 10% fetal calf serum (FCS), with interleukin-2 (IL-2) (for ATH8 cells), and antibiotics] to provide an MOI of approximately 0.01. An MOI of 0.01 is obtained by adding 10³ infectious units of virus to 10⁵ cells. Medium alone is added to virus-free control cells. The treated or control cells are incubated for 1 hour at 37°C in 5% CO₂ in air. Infected or uninfected cells are diluted to give 1 x 10⁴ cells/100 µl (2 x 10⁴ cells/100 µl for ATH8 cells). Infected or uninfected cells (100 µl) are distributed to appropriate wells of a 96 well, U-bottom, microtiter plate. Each compound dilution is tested in duplicate with infected cells. Uninfected cells are examined for drug sensitivity in a single well for each dilution of compound. Drug free control cells, infected and uninfected, are run in triplicate in wells B3 through D3 and E3 through G3, respectively. Wells A4 through A11 and H4 through H11 are drug blanks and get medium alone at this point. The plates are then incubated at 37°C in 5% CO₂ until ready for drug addition.
The first dilution of each drug is made in a test tube according to the dilution specified hereinbelow. The remaining dilutions are made in 96-well plates. All wells of each plate are filled with 225 µl of medium using a Cetus liquid handling system programed according to the plate filling worksheet. Twenty-five microliters (25 µl) of 2 diluted compounds are manually added to row 11 of a filled dilution plate in the same order in which the drugs will appear on the test plate. The two compounds are then serially diluted 10 fold from row 11 through row 4, using the Cetus liquid handling system, preprogramed with the serial dilution file worksheet.
Using a multi-channel pipettor with […], 100 µl of each drug dilution is transferred to the test plate; 100 µl from wells A4 through H4 of the dilution plate to the same wells of the test plate. Wells B3 through G3 and B2 through G2 receive medium alone.
Test plates are incubated at 37°C in 5% CO₂ in air for 7 days or until virus control cells are lysed as determined microscopically.
An XTT-PMS solution is prepared immediately prior to its addition to the wells of the culture dish [1 mg/ml XTT; 2,3-bis(2-methoxy-4-nitro-5-sulfophenyl)-5-(phenylamino)carbonyl-2H-tetrazolium hydroxide solution in media without FCS]. The stock PMS (phenazine methosulfate (15.3 mg PMS/ml FBS)) solution is diluted 1:100 (0.153 mg/ml). […]

P-388 Leukemia Cells = experiment: P-388 mouse leukemia cell culture cytotoxicity assay; type: cell-based; conditions: P388, inhibitory (cytotoxicity) concentration for P-388 leukemia cells in culture, read-out: ED₅₀
Excerpt: The ED₅₀ cytotoxicity concentrations determined for analogs 7a, 9a, 10a, 16a, and 17a in the P-388 mouse leukemia cell culture assay are given in Table II.

[3] = Anti-HIV assay, toxicity to uninfected (normal) cells, MT-2; type: cell-based; conditions: human, mt-2 cells, ID₅₀
Excerpt: as §1, §4, §2, §5

[4] = Anti-HIV assay, toxicity to uninfected (normal) cells, ATH-8; type: cell-based; conditions: human, ath-8 cells; first ID₅₀ column (c2); Cell Line ATH-8
Excerpt: as §1, §2, §3

HSV-1 = experiment: Activity against Herpes Simplex Virus Type 1; conditions: statement in words
MT-2 = experiment: Anti-HIV assay, toxicity to uninfected (normal) cells, MT-2; type: cell-based; conditions: Homo sapiens, MT2; Figure 2; screened at FCRF; normal cells; read-out: inhibitory concentration (IC₅₀) with respect to normal cells
Excerpt: as §1, §4, §2, §5

HIV [5] = conditions: early clinical trials; statement in words; cited from earlier work
HIV [6] = conditions: background and literature; statement in words; cited from earlier work
[7] = Anti-HIV assay, toxicity to uninfected (normal) cells, CEM-C; type: cell-based; conditions: human, first ID₅₀ column (c2), Cell Line CEM-C
Excerpt: as §1, §2, §3

[8] = Human immunodeficiency virus 1, Cell Line MT-2C, read-out: ED₅₀
[9] = Human immunodeficiency virus 1, Cell Line MT-2, read-out: ED₅₀

EC50 (HIV [2]; [8]): 1.9 µg/mL (≈ 7.71 µM)
SMILES: Nc1nc(N)c2ncn([C@H]3C=C[C@@H](CO)C3)c2n1 (racemic) [Compound 15a, (±)-(1α,4α)-4-(2,6-Diamino-9H-purin-9-yl)-2-cyclopentenylcarbinol]
CC50 [1]: > 125 µg/mL
activity against HIV (HIV [2]): active
inhibit the infection and killing of human T lymphocytes (Th cells) by HIV (HIV [2]): effective

SMILES: OC[C@@H]1C=C[C@H](n2cnc3c(S)ncnc32)C1 (racemic) [Compound 10a, (±)-(1α,4α)-4-(6-Mercapto-9H-purin-9-yl)-2-cyclopentenylcarbinol]
activity against HIV (HIV [2]): active
inhibit the infection and killing of human T lymphocytes (Th cells) by HIV (HIV [2]): effective
IC50 (P-388 Leukemia Cells): 3 µg/mL (≈ 12.1 µM)
CC50 [3]: 7.33 µg/mL (≈ 29.5 µM)

EC50 (HIV [2]; Human immunodeficiency virus 1, ATH-8, Cell Line ATH-8, read-out: ED₅₀): 0.2 µg/mL (≈ 0.809 µM)
EC50 (HIV [2]; Human immunodeficiency virus 1, Figure 2, screened at FCRF, read-out: effective concentration (EC₅₀) with respect to infected cells): ~0.15 µg/mL (≈ 0.607 µM)
SMILES: Nc1nc2c(ncn2[C@H]2C=C[C@@H](CO)C2)c(=O)[nH]1 (racemic) [Compound 14a, (±)-(1α,4α)-4-(2-Amino-6-hydroxy-9H-purin-9-yl)-2-cyclopentenyl carbinol]
CC50 [4]: 55.3 µg/mL (≈ 224 µM)
therapeutic index (TI₅₀) (HIV [2]; Figure 2, screened at FCRF): about 667
TI₅₀ (HIV [2]; earlier assay at Southern Research Institute, MT-2 cells cultured with H9/HTLV-IIIB): about 200
activity against HIV (HIV [2]): strongly inhibits HIV infectivity in vitro
inhibit the infection and killing of human T lymphocytes (Th cells) by HIV (HIV [2]): effective
active against HSV-1 (HSV-1): active
IC50 (MT-2): ~100 µg/mL (≈ 404 µM)

SMILES: Nc1nc(Cl)cc(N[C@H]2C=C[C@@H](CO)C2)n1 (racemic) [Compound 4a, (±)-(1α,4α)-4-[(2-Amino-6-chloro-4-pyrimidinyl)-amino]-2-cyclopentenylcarbinol]
inhibit the infection and killing of human T lymphocytes (Th cells) by HIV (HIV [2]): effective

EC50 (HIV [2]; [9]): 0.41 µg/mL (≈ 1.54 µM)
SMILES: Nc1nc(Cl)c2ncn([C@H]3C=C[C@@H](CO)C3)c2n1 (racemic) [Compound 13a, (±)-(1α,4α)-4-(2-Amino-6-chloro-9H-purin-9-yl)-2-cyclopentenyl carbinol]
activity against HIV (HIV [2]): active
inhibit the infection and killing of human T lymphocytes (Th cells) by HIV (HIV [2]): effective
CC50 [3]: 6.97 µg/mL (≈ 26.2 µM)

SMILES: Nc1c(Cl)ncnc1N[C@H]1C=C[C@@H](CO)C1 (racemic) [Compound 3a, (±)-(1α,4α)-4-[(5-Amino-6-chloro-4-pyrimidinyl)-amino]-2-cyclopentenylcarbinol]
inhibit the infection and killing of human T lymphocytes (Th cells) by HIV (HIV [2]): effective

SMILES: NC(=O)c1ncn([C@@H]2O[C@H](CO)[C@@H](O)[C@H]2O)n1 [Ribavirin, 1-β-D-Ribofuranosyl-1H-1,2,4-triazole-3-carboxamide]
effect in AIDS patients (HIV [5]): inhibited viral replication

SMILES: O=c1[nH]cnc2c1ncn2[C@H]1C=C[C@@H](CO)C1 (racemic) [Compound 8a, (±)-(1α,4α)-4-(6-Hydroxy-9H-purin-9-yl)-2-cyclopentenylcarbinol]
inhibit the infection and killing of human T lymphocytes (Th cells) by HIV (HIV [2]): effective

SMILES: OC[C@@H]1CC[C@H](n2cnc3c(O)ncnc32)O1 [ddI, 2′,3′-Dideoxyinosine]
activity against HIV in vitro (HIV [6]): inhibit HIV-induced cytopathic effects in vitro; also recorded: significant antiviral activity against HIV in vitro

SMILES: Nc1nc(Cl)c2nnn([C@H]3C=C[C@@H](CO)C3)c2n1 (racemic) [Compound 16a]
IC50 (P-388 Leukemia Cells): 1 µg/mL (≈ 3.75 µM)

EC50 (HIV [2]; [8]): 0.325 µg/mL (≈ 1.31 µM)
SMILES: Nc1nc(O)c2ncn([C@H]3C=C[C@@H](CO)C3)c2n1 [(-)14a, (1S,4R)-4-(2-Amino-6-hydroxy-9H-Purin-9-yl)-2-cyclopentenyl Carbinol]
CC50 ([1]; first ID₅₀ column (c2), Cell Line MT-2C, read-out: ID₅₀): 135 µg/mL (≈ 546 µM)
activity against HIV (HIV [2]): highly active
CC50 [7]: 189 µg/mL (≈ 764 µM)

SMILES: CC(=O)OC[C@@H]1C=C[C@H](n2cnc3c(=O)[nH]c(N)nc32)C1 (racemic) [1α-acetate ester of 14a, (1α,2α)-4-(2-Amino-6-hydroxy-9H-purin-9-yl)-2-cyclopentenyl Acetoxycarbinol]
inhibition at 6 µg/mL (HIV [2]; Human immunodeficiency virus 1, against HIV at 6 µg/ml): 28%

SMILES: Nc1nc(Cl)c(N)c(N[C@H]2C=C[C@@H](CO)C2)n1 (racemic) [Compound 6a, (±)-(1α,4α)-4-[(2,5-Diamino-6-chloro-4-pyrimidinylamino]-2 cyclopentenylcarbinol]
inhibit the infection and killing of human T lymphocytes (Th cells) by HIV (HIV [2]): effective

SMILES: Nc1c(Cl)ncnc1N[C@H]1CC[C@@H](CO)C1 (racemic) [Compound 3b]
inhibit the infection and killing of human T lymphocytes (Th cells) by HIV (HIV [2]): effective

SMILES: Cc1cn([C@H]2C=C[C@@H](CO)O2)c(=O)[nH]c1=O [d4T, 2′,3′-dideoxy-2′,3′-didehydrothymidine]
activity against HIV in vitro (HIV [6]): potent inhibitor of HIV replication in vitro

SMILES: [N-]=[N+]=N[C@H]1C[C@H](n2ccc(=O)[nH]c2=O)O[C@@H]1CO [CS-87, 3′-azido-2′,3′-dideoxyuridine]
activity against HIV in vitro (HIV [6]): significant activity against HIV in vitro; also recorded: significantly inhibit HIV replication in vitro

SMILES: Nc1nc(Cl)c(N=Nc2ccc(Cl)cc2)c(N[C@H]2C=C[C@@H](CO)C2)n1 (racemic) [Compound 5a, (±)-(1α,4α)-4-{[2-Amino-6-chloro-5-(4-chlorophenyl)-azo]-4-pyrimidinyl]-amino}-2-cyclopentenylcarbinol]
inhibit the infection and killing of human T lymphocytes (Th cells) by HIV (HIV [2]): effective

SMILES: Nc1nc(Cl)cc(N[C@H]2CC[C@@H](CO)C2)n1 (racemic) [Compound 4b]
inhibit the infection and killing of human T lymphocytes (Th cells) by HIV (HIV [2]): effective

SMILES: OC[C@@H]1C=C[C@H](n2cnc3c(Cl)ncnc32)C1 (racemic) [Compound 7a, (±)-(1α,4α)-4-(6-chloro-9H-purin-9-yl)-2-cyclopentenylcarbinol]
activity against HIV (HIV [2]): active
inhibit the infection and killing of human T lymphocytes (Th cells) by HIV (HIV [2]): effective
IC50 (P-388 Leukemia Cells): 12 µg/mL (≈ 47.9 µM)
CC50 [3]: 58.5 µg/mL (≈ 233 µM)

EC50 (HIV [2]; [9]): 2.3 µg/mL (≈ 9.95 µM)
SMILES: Nc1ncnc2c1ncn2[C@H]1C=C[C@@H](CO)C1 (racemic) [Compound 9a, (±)-(1α,4α)-4-(6-Amino-9H-purin-9-yl)-2-cyclopentenylcarbinol]
activity against HIV (HIV [2]): active
inhibit the infection and killing of human T lymphocytes (Th cells) by HIV (HIV [2]): effective
IC50 (P-388 Leukemia Cells): 40 µg/mL (≈ 173 µM)
CC50 [3]: 50 µg/mL (≈ 216 µM)

SMILES: Nc1nc2c(nnn2[C@H]2C=C[C@@H](CO)C2)c(=O)[nH]1 (racemic) [Compound 17a]
IC50 (P-388 Leukemia Cells): 4.5 µg/mL (≈ 18.1 µM)
